According to patent US12384800B2, “Antitumoral compounds” (priority 2017, dated 2025):

What was measured:
HT1080 tumors = assay: Human fibrosarcoma xenograft, total diameter (tumor + leg)
Description: Female athymic nu/nu mice (Harlan Laboratories Models, S.L. Barcelona, Spain or Envigo, Spain) were utilized for all experiments. Animal were housed in individually ventilated cages Sealsafe® Plus, Techniplast S.P.A.), up to ten per cage on a 12-hour light-dark cycle at 21-23° C. and 40-60% humidity. […] Animals were acclimated for at least 5 days prior to tumor implantation with a tumor cell suspension.
HT1080 cells were maintained in vitro at 37° C. with 5% CO2 in Minimum Essential Medium Eagle (MEME) (Sigma-Aldrich, Co). Each animal was orthotopically implanted into gastroecnemius muscle by an intramuscular injection using a 26G needle and a 1 cc syringe at 4-6 weeks of age, with 10×10^6 HT1080 cells, suspended in serum free medium, without antibiotics.
Treatment tolerability was assessed by monitoring body weight evolution, clinical signs of systemic toxicity, as well as evidences of local damage in the injection site.
In xenograft studies with HT1080 cell line: • Total diameter (tumor+leg) measurements were determined by using digital caliper (Fowler Sylvac, S235PAT).
Treatments producing >20% lethality and/or 20% net body weight loss were considered toxic.

[1] = MTD (Maximum Tolerated Dose) determination, single iv administration; format: in vivo; conditions: mice; iv/SD (single dose); monitored up to 14 days
From the text: (§1) Female CD-1 or Athymic Nude-Fox1 nu/nu mice (Envigo) were utilized for all experiments. […] Animals were acclimated for five days prior to being individually tattoo-identified. Animal protocols were reviewed and approved according to the regional Institutional Animal Care and Use Committees.
(§2) Mice were randomly allocated into experimental groups and intravenously administered, once for the MTD (Maximum Tolerated Dose) determination or one administration a week during three consecutive weeks, for the MTMD (Maximum Tolerated Multiple Dose) determination study. The animals were administered with white formulation or with compound dissolved in the experimental formulation at different concentrations. The volume administered was always […]. Once administered, animals were monitored for clinical signs of systemic toxicity, changes in body weight and mortality up to 14 days after the administration.

[2] = MTMD (Maximum Tolerated Multiple Dose) determination, iv weekly x 3; format: in vivo; conditions: mice; iv/Q7d × 3
From the text: as §1, §2

[3] = test system: HT29 cells (colorectal adenocarcinoma); assay: cells; conditions: HT29, SRB; for GI50: 72 hours treatment; for TGI: total cell growth inhibition; for TGI / CC50: 72 hours; for CC50: read-out: LC50, 50% net cell killing
From the text: (§3) The aim of this assay is to evaluate the in vitro cytostatic (ability to delay or arrest tumor cell growth) or cytotoxic (ability to kill tumor cells) activity of the samples being tested.
(§4) A colorimetric assay, using sulforhodamine B (SRB) reaction has been adapted to provide a quantitative measurement of cell growth and viability (following the technique described by Skehan et al. J. Natl. Cancer Inst. 1990, 82, 1107-1112). Another colorimetric assay based on 3-(4,5-Dimethylthiazol-2-yl)-2,5-diphenyltetrazolium bromide (MTT) reduction to a purple formazan has been also used to assess the antiproliferative activity (following the technique described by Mosmann et al. J. Immunol. Meth. 1983, 65, 55-63).
(§5) These forms of assays employ 96-well cell culture microplates following the standards of the American National Standards Institute and the Society for Laboratory Automation and Screening (ANSI SLAS 1-2004 (R2012) Oct. 12, 2011. All the cell lines used in this study were obtained from the American Type Culture Collection (ATCC) and derive from different types of human cancer.
(§6) A549, HT29, MDA-MB-231 and PSN1 cells were maintained in Dulbecco's Modified Eagle Medium (DMEM) while PC-3 and 22Rv1 cells were maintained in Roswell Park Memorial Institute Medium (RPMI). All cell lines were supplemented with 10% Fetal Bovine Serum (FBS), 2 mM L-glutamine, 100 U/mL penicillin, and 100 […] at 37° C., 5% CO2 and 98% humidity. For the experiments, cells were harvested from subconfluent cultures using trypsinization and resuspended in fresh medium before counting and plating.
(§7) A549, HT29, MDA-MB-231 and PSN1 cells were seeded in 96 well microtiter plates, at 5000 cells per well in aliquots of 150 μL, and allowed to attach to the plate surface for 18 hours (overnight) in drug free medium. After that, one control (untreated) plate of each cell line was fixed (as described below) and used for time zero reference value. Culture plates were then treated with test compounds (50 μL aliquots of 4× stock solutions in complete culture medium plus 4% DMSO) using ten ⅖ serial dilutions (concentrations ranging from 10 to 0.003 μg/mL) and triplicate cultures (1% final concentration in DMSO). After 72 hours treatment, the antitumor effect was measured by using the SRB methodology: Briefly, cells were washed twice with PBS, fixed for 15 min in 1% glutaraldehyde solution at room temperature, rinsed twice in PBS, and stained in 0.4% SRB solution for 30 min at room temperature. Cells were then rinsed several times with 1% acetic acid solution and air-dried at room temperature.
(§8) Effects on cell growth and survival were estimated by applying the NCI algorithm (Boyd M R and Paull K D. Drug Dev. Res. 1995, 34, 91-104). The values obtained in triplicate cultures were fitted by nonlinear regression to a four-parameters logistic curve by nonlinear regression analysis.

[4] = test system: MDA-MB-231 cells (breast adenocarcinoma); assay: cells; conditions: MDA-MB-231, SRB; for GI50: 72 hours treatment; for TGI: total cell growth inhibition; for TGI / CC50: 72 hours; for CC50: read-out: LC50, 50% net cell killing
From the text: as §3, §4, §5, §6, §7, §8

[5] = test system: A549 cells (lung carcinoma, NSCLC); assay: cells; conditions: A549, SRB; for GI50: 72 hours treatment; for TGI: total cell growth inhibition; for TGI / CC50: 72 hours; for CC50: read-out: LC50, 50% net cell killing
From the text: as §3, §4, §5, §6, §7, §8

[6] = test system: PSN1 cells (pancreas adenocarcinoma); assay: cells; conditions: PSN1, SRB; for GI50: 72 hours treatment; for TGI: total cell growth inhibition; for TGI / CC50: 72 hours; for CC50: read-out: LC50, 50% net cell killing
From the text: as §3, §4, §5, §6, §7, §8

[7] = Day 0.0, iv Days 0, 7 and 14, compound C 3.0 mg/kg, 4-S […], 12-S […]
[8] = Day 2.0, iv Days 0, 7 and 14, compound C 3.0 mg/kg, 4-S […], 12-S […]
[9] = Day 5.0, iv Days 0, 7 and 14, compound C 3.0 mg/kg, 4-S […], 12-S […]
[10] = Day 7.0, iv Days 0, 7 and 14, compound C 3.0 mg/kg, 4-S […], 12-S […]
[11] = Day 9.0, iv Days 0, 7 and 14, compound C 3.0 mg/kg, 4-S […], 12-S […]
[12] = Day 12.0, iv Days 0, 7 and 14, compound C 3.0 mg/kg, 4-S […], 12-S […]
[13] = Day 14.0, iv Days 0, 7 and 14, compound C 3.0 mg/kg, 4-S […], 12-S […]
[14] = Day 16.0, iv Days 0, 7 and 14, compound C 3.0 mg/kg, 4-S […], 12-S […]
[15] = Day 19.0, iv Days 0, 7 and 14, compound C 3.0 mg/kg, 4-S […], 12-S […]
[16] = Day 21.0, iv Days 0, 7 and 14, compound C 3.0 mg/kg, 4-S […], 12-S […]
[17] = Day 23.0, iv Days 0, 7 and 14, compound C 3.0 mg/kg, 4-S […], 12-S […]

## COc1c(C)cc2c(c1O)[C@@H]1[C@@H]3[C@@H]4SC[C@]5(N[C@H](CO)Cc6c5[nH]c5ccccc65)C(=O)OC[C@@H](c5c6c(c(C)c(OC(C)=O)c54)OCO6)N3[C@@H](O)[C@H](C2)N1C [Compound 4-S]
HT1080 tumors; [7]
  Total diameter (tumor + leg): 7.5 mm
HT1080 tumors; [8]
  Total diameter (tumor + leg): 7.7 mm
HT1080 tumors; [9]
  Total diameter (tumor + leg): 8.3 mm
HT1080 tumors; [10]
  Total diameter (tumor + leg): 8.8 mm
HT1080 tumors; [11]
  Total diameter (tumor + leg): 8.4 mm
HT1080 tumors; [12]
  Total diameter (tumor + leg): 8.4 mm
HT1080 tumors; [13]
  Total diameter (tumor + leg): 9.6 mm
HT1080 tumors; [14]
  Total diameter (tumor + leg): 10.0 mm
HT1080 tumors; [15]
  Total diameter (tumor + leg): 10.4 mm
HT1080 tumors; [16]
  Total diameter (tumor + leg): 12.1 mm
HT1080 tumors; [17]
  Total diameter (tumor + leg): 12.7 mm
[1]
  MTD: 1.0 mg/kg

## COc1ccc2oc3c(c2c1)CCN[C@]31CS[C@@H]2c3c(OC(C)=O)c(C)c4c(c3[C@H](COC1=O)N1[C@@H]2[C@H]2c3c(cc(C)c(OC)c3O)C[C@@H]([C@@H]1O)N2C)OCO4 [Compound 35]
[2]
  MTMD: 0.25 mg/kg

## COc1c(C)cc2c(c1O)[C@@H]1[C@@H]3[C@@H]4SC[C@]5(N[C@H](C)Cc6c5[nH]c5ccccc65)C(=O)OC[C@@H](c5c6c(c(C)c(OC(C)=O)c54)OCO6)N3[C@@H](O)[C@H](C2)N1C [Compound C]
HT1080 tumors; Day 0
  Total diameter (tumor + leg): 7.5 mm
HT1080 tumors; [7]
  Total diameter (tumor + leg): 7.5 mm
HT1080 tumors; Day 2
  Total diameter (tumor + leg): 8.8 mm
HT1080 tumors; [8]
  Total diameter (tumor + leg): 8.8 mm
HT1080 tumors; Day 5
  Total diameter (tumor + leg): 9.0 mm
HT1080 tumors; [9]
  Total diameter (tumor + leg): 9.0 mm
HT1080 tumors; Day 7
  Total diameter (tumor + leg): 9.6 mm
HT1080 tumors; [10]
  Total diameter (tumor + leg): 9.6 mm
HT1080 tumors; Day 9
  Total diameter (tumor + leg): 10.2 mm
HT1080 tumors; [11]
  Total diameter (tumor + leg): 10.2 mm
HT1080 tumors; Day 12
  Total diameter (tumor + leg): 10.2 mm
HT1080 tumors; [12]
  Total diameter (tumor + leg): 10.2 mm
HT1080 tumors; Day 14
  Total diameter (tumor + leg): 11.2 mm
HT1080 tumors; [13]
  Total diameter (tumor + leg): 11.2 mm
HT1080 tumors; Day 16
  Total diameter (tumor + leg): 12.4 mm
HT1080 tumors; [14]
  Total diameter (tumor + leg): 12.4 mm
HT1080 tumors; Day 19
  Total diameter (tumor + leg): 13.3 mm
HT1080 tumors; [15]
  Total diameter (tumor + leg): 13.3 mm
HT1080 tumors; Day 21
  Total diameter (tumor + leg): 15.2 mm
HT1080 tumors; [16]
  Total diameter (tumor + leg): 15.2 mm
HT1080 tumors; Day 23
  Total diameter (tumor + leg): 18.0 mm
HT1080 tumors; [17]
  Total diameter (tumor + leg): 18.0 mm
[2]
  MTMD: 3.0 mg/kg
[3]
  GI50: 20.8 nM
  TGI: 2.34E−08 Molar
  CC50: > 130 nM
[4]
  GI50: 26 nM
  TGI: 5.46E−08 Molar
  CC50: > 130 nM
[5]
  GI50: 27.3 nM
  TGI: 6.63E−08 Molar
  CC50: > 130 nM
[6]
  GI50: 36.4 nM
  TGI: 4.42E−08 Molar
  CC50: 65 nM

## COc1c(C)cc2c(c1O)[C@@H]1[C@@H]3[C@@H]4SC[C@]5(N[C@@H](C)Cc6c5[nH]c5ccccc65)C(=O)OC[C@@H](c5c6c(c(C)c(OC(C)=O)c54)OCO6)N3[C@@H](O)[C@H](C2)N1C [Compound D]
HT1080 tumors; Day 0
  Total diameter (tumor + leg): 7.5 mm
HT1080 tumors; Day 0, iv Days 0, 7 and 14, PM01183 […], Compound D 0.5 mg/kg
  Total diameter (tumor + leg): 7.7 mm
HT1080 tumors; Day 2
  Total diameter (tumor + leg): 8.2 mm
HT1080 tumors; Day 2, iv Days 0, 7 and 14, PM01183 […], Compound D 0.5 mg/kg
  Total diameter (tumor + leg): 9.5 mm
HT1080 tumors; Day 5
  Total diameter (tumor + leg): 7.5 mm
HT1080 tumors; Day 5, iv Days 0, 7 and 14, PM01183 […], Compound D 0.5 mg/kg
  Total diameter (tumor + leg): 8.8 mm
HT1080 tumors; Day 7
  Total diameter (tumor + leg): 7.4 mm
HT1080 tumors; Day 7, iv Days 0, 7 and 14, PM01183 […], Compound D 0.5 mg/kg
  Total diameter (tumor + leg): 8.7 mm
HT1080 tumors; Day 9
  Total diameter (tumor + leg): 8.1 mm
HT1080 tumors; Day 9, iv Days 0, 7 and 14, PM01183 […], Compound D 0.5 mg/kg
  Total diameter (tumor + leg): 9.4 mm
HT1080 tumors; Day 12
  Total diameter (tumor + leg): 7.9 mm
HT1080 tumors; Day 12, iv Days 0, 7 and 14, PM01183 […], Compound D 0.5 mg/kg
  Total diameter (tumor + leg): 9.4 mm
HT1080 tumors; Day 14
  Total diameter (tumor + leg): 7.7 mm
HT1080 tumors; Day 14, iv Days 0, 7 and 14, PM01183 […], Compound D 0.5 mg/kg
  Total diameter (tumor + leg): 10.1 mm
HT1080 tumors; Day 16
  Total diameter (tumor + leg): 8.8 mm
HT1080 tumors; Day 16, iv Days 0, 7 and 14, PM01183 […], Compound D 0.5 mg/kg
  Total diameter (tumor + leg): 10.9 mm
HT1080 tumors; Day 19
  Total diameter (tumor + leg): 10.2 mm
HT1080 tumors; Day 19, iv Days 0, 7 and 14, PM01183 […], Compound D 0.5 mg/kg
  Total diameter (tumor + leg): 11.2 mm
HT1080 tumors; Day 21
  Total diameter (tumor + leg): 11.2 mm
HT1080 tumors; Day 21, iv Days 0, 7 and 14, PM01183 […], Compound D 0.5 mg/kg
  Total diameter (tumor + leg): 12.1 mm
HT1080 tumors; Day 23
  Total diameter (tumor + leg): 12.2 mm
HT1080 tumors; Day 23, iv Days 0, 7 and 14, Compound D 0.5 mg/kg
  Total diameter (tumor + leg): 13.0 mm
HT1080 tumors; Day 26, iv Days 0, 7 and 14, Compound D 0.5 mg/kg
  Total diameter (tumor + leg): 15.0 mm
HT1080 tumors; Day 27
  Total diameter (tumor + leg): 13.2 mm
HT1080 tumors; Day 28, iv Days 0, 7 and 14, Compound D 0.5 mg/kg
  Total diameter (tumor + leg): 18.0 mm
HT1080 tumors; Day 30
  Total diameter (tumor + leg): 14.6 mm
HT1080 tumors; Day 33
  Total diameter (tumor + leg): 16.3 mm
HT1080 tumors; Day 35
  Total diameter (tumor + leg): 18.0 mm
[2]
  MTMD: 0.5 mg/kg
[3]
  GI50: 10.3 nM
  TGI: 2.34E−08 Molar
  CC50: > 130 nM
[4]
  GI50: 9.88 nM
  TGI: 1.95E−08 Molar
  CC50: 53.3 nM
[5]
  GI50: 12.5 nM
  TGI: 2.86E−08 Molar
  CC50: > 130 nM
[6]
  GI50: 20.8 nM
  TGI: 2.21E−08 Molar
  CC50: 24.7 nM
